# In patent US20050164308A1, “Beta-lactamase CD4+ T-cell epitopes” (priority 2003, published 2005):
# Legend:
# CD4+ T-cells [1] = assay: I-MUNE assay: proliferation of CD4+ T-cells with differentiated dendritic cells in response to beta-lactamase 15-mer peptides; assay type: cell-based, human
# [2] = test system: HLA-DRB1 and DQB1 antigens; assay: HLA association with responses to epitope peptides; design: species or system human
# Protocol: HLA-DR and DQ types were analyzed for associations with responses to defined epitope peptides. A Chi-squared analysis, with one degree of freedom was used to determine significance. Where an allele was present in both the responder and non-responder pools, a relative risk was calculated.
# The HLA-DR and DQ expression of 65 of the donors tested in both rounds of assay testing described above were assessed using a commercially available PCR-based HLA typing kit (Bio-Synthesis). […] Wherever the HLA antigen was present in both reactive and non-reactive donors, a relative risk (i.e., the increased or decreased likelihood of presenting a reaction conditioned on the presence of the HLA antigen) was computed. […] In addition, the mean and standard error of quantitative response for each peptide were determined.
# The magnitude of the proliferative response to an individual peptide in responders and non-responders expressing epitope-associated HLA alleles were also be analyzed. An “individual responder to the peptide” is defined by a stimulation index of greater than 2.95.
# CD4+ T-cells [3] = assay type: cell-based, human; conditions: for effect of the change on the percent of responders to the modified epitope sequence: epitope #49 substitution, 69 donors
substance,measurement,setting,value
#107 (TGGFGSYVAFIPEKQ; listed as Enterobacter cloacae),response (percent responders),CD4+ T-cells [1],12.11%
same,response of DR13 non-responders lower than the other genotypes,[2]; among non-responders,23%
same,increase of quantitative response in DR1+ relative to DR1- responders,[2]; donors reactive to the peptide,27%
same,quantitative response of DR1+ responders,[2]; donors reactive to the peptide,5.4
same,quantitative response of DR1- responders,[2]; donors reactive to the peptide,4.2
"GTTRLYANASLGLFG (beta-lactamase epitope) [Peptide I155L, peptide #49 with the substitution I155L]",effect of the change on the percent of responders to the modified epitope sequence,CD4+ T-cells [3],little effect
"GTTRLYANASFGLFG (beta-lactamase epitope) [Peptide I155F, peptide #49 with the substitution I155F]",effect of the change on the percent of responders to the modified epitope sequence,CD4+ T-cells [3],little effect
"GTTRSYANASIGLFG (variant of SEQ ID NO82) [Peptide L149S, peptide #49 with the substitution L149S]",effect on the epitope response rate,CD4+ T-cells [3],had an effect
tetanus toxoid [reference compound],positive control proliferative response,CD4+ T-cells [1]; approximately 5 Lf/mL,robust positive control responses
#36 (MLDLATYTAGGLPLQ; listed as Enterobacter cloacae),response (percent responders),CD4+ T-cells [1],12.11%
same,quantitative response of DR1+ responders,[2]; donors reactive to the peptide,7.8
same,quantitative response of DR1- responders,[2]; donors reactive to the peptide,4.42
"GTTRLYANASVGLFG (beta-lactamase epitope) [Peptide I155V, peptide #49 with the substitution I155V]",effect of the change on the percent of responders to the modified epitope sequence,CD4+ T-cells [3],increased the percent of responders
